Legend:
[1] = biological target: Tyrosine-protein kinase JAK1 (Homo sapiens, UniProt P23458)
LRRK2 = LRRK2 (Homo sapiens, UniProt Q5S007); assay: Inhibition of recombinant human GST-tagged LRRK2 (970 to 2527 residues) expressed in baculovirus expression system using LRRKtide as substrate at 0.1 uM incubated for 60 mins by Adapta assay relative to control; details: probe LRRKtide
[2] = biological target: Proto-oncogene tyrosine-protein kinase ROS (Homo sapiens) (UniProt P08922); assay: Inhibition of recombinant human GST-tagged […] ROS1 (1883 to 2347 residues) expressed in baculovirus expression system using Tyr 01 as substrate at 0.1 uM incubated for 60 mins by Z'-Lyte assay relative to control
[3] = biological target: Proto-oncogene tyrosine-protein kinase Src (Homo sapiens) (UniProt P12931); assay: Inhibition of recombinant human C-terminal His-tagged full length SRC expressed in baculovirus expression system using Tyr 02 as substrate at 0.1 uM incubated for 60 mins by Z'-Lyte assay relative to control
Chain of Proto-oncogene tyrosine-protein kinase Src (Homo sapiens) (P12931 2-536 limits assumed): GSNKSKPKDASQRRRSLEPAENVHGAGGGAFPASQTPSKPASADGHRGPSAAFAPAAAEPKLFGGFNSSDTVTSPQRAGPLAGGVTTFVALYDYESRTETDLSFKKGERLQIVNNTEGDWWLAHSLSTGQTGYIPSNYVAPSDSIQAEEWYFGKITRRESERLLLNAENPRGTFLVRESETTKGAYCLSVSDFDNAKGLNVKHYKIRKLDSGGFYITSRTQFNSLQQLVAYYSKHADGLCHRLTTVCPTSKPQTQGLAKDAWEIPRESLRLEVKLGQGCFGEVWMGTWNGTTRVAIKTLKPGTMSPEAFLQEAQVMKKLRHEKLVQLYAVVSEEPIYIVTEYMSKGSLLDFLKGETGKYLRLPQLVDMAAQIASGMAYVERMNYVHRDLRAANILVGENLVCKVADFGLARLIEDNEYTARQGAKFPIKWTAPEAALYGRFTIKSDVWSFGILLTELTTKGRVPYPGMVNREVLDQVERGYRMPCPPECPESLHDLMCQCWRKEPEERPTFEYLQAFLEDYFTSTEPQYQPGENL

[4] = biological target: Tyrosine-protein kinase Yes (Homo sapiens) (UniProt P07947); assay: Inhibition of recombinant human GST-tagged full length YES expressed in baculovirus expression system using Tyr 02 as substrate at 0.1 uM incubated for 60 mins by Z'-Lyte assay relative to control
[5] = biological target: Death-associated protein kinase 1 (Homo sapiens) (UniProt P53355); assay: Inhibition of recombinant human N-terminal GST-tagged DAPK1 (1 to 363 residues) expressed in baculovirus expression system using ZIPtide as substrate at 0.1 uM incubated for 60 mins by Adapta assay relative to control
[6] = biological target: Protein kinase C alpha type (Homo sapiens) (UniProt P17252); assay: Inhibition of recombinant human His-tagged full length PKCalpha expressed in Escherichia coli expression system using Ser/Thr 07 as substrate at 0.1 uM incubated for 60 mins by Z'-lyte assay relative to control
[7] = biological target: T1, Mitogen-activated protein kinase 13 (Homo sapiens) (UniProt O15264); assay: Inhibition of recombinant human His-tagged full length p38 delta expressed in baculovirus expression system using Ser/Thr 03 as substrate at 0.1 uM incubated for 60 mins by Z'-Lyte assay relative to control
T1 sequence (whole entry): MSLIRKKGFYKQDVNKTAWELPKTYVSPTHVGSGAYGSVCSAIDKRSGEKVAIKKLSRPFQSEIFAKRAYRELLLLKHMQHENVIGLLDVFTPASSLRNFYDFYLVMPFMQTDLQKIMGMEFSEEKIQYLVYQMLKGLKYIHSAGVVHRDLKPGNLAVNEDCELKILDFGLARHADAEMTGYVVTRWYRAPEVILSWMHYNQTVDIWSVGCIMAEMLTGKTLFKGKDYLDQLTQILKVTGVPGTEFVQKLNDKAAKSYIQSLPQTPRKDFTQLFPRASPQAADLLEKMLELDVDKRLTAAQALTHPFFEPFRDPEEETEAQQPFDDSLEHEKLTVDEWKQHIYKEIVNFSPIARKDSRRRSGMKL

[8] = biological target: Macrophage colony-stimulating factor 1 receptor (Homo sapiens) (UniProt P07333); assay: Inhibition of recombinant human His-tagged CSF1R (538 to 910 residues) expressed in baculovirus expression system using Tyr 01 as substrate at 0.1 uM incubated for 60 mins by Z'-Lyte assay relative to control
Chain of Macrophage colony-stimulating factor 1 receptor (Homo sapiens) (P07333 whole entry, the tested form may be a part): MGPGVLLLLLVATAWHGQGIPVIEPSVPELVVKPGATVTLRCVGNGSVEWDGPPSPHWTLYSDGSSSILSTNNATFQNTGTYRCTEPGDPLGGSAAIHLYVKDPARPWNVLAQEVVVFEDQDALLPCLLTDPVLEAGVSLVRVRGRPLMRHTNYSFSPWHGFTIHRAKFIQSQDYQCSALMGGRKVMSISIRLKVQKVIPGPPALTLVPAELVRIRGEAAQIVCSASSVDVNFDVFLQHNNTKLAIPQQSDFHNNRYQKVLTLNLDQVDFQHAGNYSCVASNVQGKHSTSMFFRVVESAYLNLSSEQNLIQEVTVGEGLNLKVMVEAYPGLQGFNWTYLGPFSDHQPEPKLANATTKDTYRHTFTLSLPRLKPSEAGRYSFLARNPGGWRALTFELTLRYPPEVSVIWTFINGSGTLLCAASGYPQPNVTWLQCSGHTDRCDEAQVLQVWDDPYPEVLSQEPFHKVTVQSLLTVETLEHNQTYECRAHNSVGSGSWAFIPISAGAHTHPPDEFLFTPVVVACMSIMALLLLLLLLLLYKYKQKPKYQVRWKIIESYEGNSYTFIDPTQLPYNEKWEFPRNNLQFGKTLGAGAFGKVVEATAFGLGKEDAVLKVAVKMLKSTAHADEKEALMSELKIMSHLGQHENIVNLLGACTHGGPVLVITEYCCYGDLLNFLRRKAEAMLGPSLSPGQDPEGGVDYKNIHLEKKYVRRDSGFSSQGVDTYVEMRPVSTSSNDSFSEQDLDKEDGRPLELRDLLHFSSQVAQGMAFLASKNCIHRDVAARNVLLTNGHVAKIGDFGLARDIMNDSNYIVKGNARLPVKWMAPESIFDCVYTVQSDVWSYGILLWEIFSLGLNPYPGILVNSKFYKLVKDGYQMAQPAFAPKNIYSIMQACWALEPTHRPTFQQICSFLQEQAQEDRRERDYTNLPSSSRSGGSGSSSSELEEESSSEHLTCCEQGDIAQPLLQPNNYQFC

[9] = biological target: Insulin receptor (Homo sapiens) (UniProt P06213); assay: Inhibition of recombinant human GST-tagged InsR (1011 to 1382 residues) expressed in baculovirus expression system using Tyr 01 as substrate at 0.1 uM incubated for 60 mins by Z'-lyte assay relative to control
[10] = biological target: Mitogen-activated protein kinase 3 (Homo sapiens) (UniProt P27361); assay: Inhibition of recombinant human GST-tagged full length ERK1 expressed in Escherichia coli expression system using Ser/Thr 03 as substrate at 0.1 uM incubated for 60 mins by Z'-Lyte assay relative to control
Chain of Mitogen-activated protein kinase 3 (Homo sapiens) (P27361 whole entry, the tested form may be a part): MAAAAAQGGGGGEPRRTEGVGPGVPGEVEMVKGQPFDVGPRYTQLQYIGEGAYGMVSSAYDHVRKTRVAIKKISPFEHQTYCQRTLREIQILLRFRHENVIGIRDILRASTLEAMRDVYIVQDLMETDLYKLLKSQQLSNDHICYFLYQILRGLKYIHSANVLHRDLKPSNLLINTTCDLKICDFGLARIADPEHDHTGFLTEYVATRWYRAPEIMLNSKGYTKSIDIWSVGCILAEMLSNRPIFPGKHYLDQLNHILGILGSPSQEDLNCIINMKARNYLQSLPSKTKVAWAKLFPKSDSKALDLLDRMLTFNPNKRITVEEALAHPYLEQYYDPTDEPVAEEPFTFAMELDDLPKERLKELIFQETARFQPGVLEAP

[11] = biological target: cAMP-dependent protein kinase catalytic subunit alpha (Homo sapiens) (UniProt P17612); assay: Inhibition of recombinant human His-tagged PKA (1 to 351 residues) expressed in Escherichia coli expression system using Ser/Thr 01 as substrate at 0.1 uM incubated for 60 mins by Z'-lyte assay relative to control
[12] = biological target: Serine/threonine-protein kinase pim-1 (Homo sapiens) (UniProt P11309); assay: Inhibition of recombinant human His-tagged full length PIM1 expressed in baculovirus expression system using Ser/Thr 07 as substrate at 0.1 uM incubated for 60 mins by Z'-lyte assay relative to control
Chain of Serine/threonine-protein kinase pim-1 (Homo sapiens) (P11309 whole entry, looked up, the tested form may be a part): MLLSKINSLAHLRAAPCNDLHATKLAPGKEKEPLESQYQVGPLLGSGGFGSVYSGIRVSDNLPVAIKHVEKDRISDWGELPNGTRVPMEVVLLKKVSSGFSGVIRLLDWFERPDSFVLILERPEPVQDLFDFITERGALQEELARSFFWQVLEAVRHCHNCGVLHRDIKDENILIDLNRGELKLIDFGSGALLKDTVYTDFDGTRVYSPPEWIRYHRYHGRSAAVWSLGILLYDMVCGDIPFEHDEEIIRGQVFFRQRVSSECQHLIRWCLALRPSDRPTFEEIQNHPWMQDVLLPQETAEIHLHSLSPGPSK

[13] = biological target: Receptor tyrosine-protein kinase erbB-2 (Homo sapiens) (UniProt P04626); assay: Inhibition of recombinant human His-tagged ERBB2 (676 to 1255 residues) expressed in baculovirus expression system using Tyr 06 as substrate at 0.1 uM incubated for 60 mins by Z'-Lyte assay relative to control
[14] = biological target: MAP kinase-activated protein kinase 2 (Homo sapiens) (UniProt P49137); assay: Inhibition of recombinant human His-tagged full length MAPKAPK2 expressed in Escherichia coli expression system using Ser/Thr 04 as substrate at 0.1 uM incubated for 60 mins by Z'-lyte assay relative to control
[15] = biological target: T2, Interleukin-1 receptor-associated kinase 4 (Homo sapiens) (UniProt Q9NWZ3); assay: Inhibition of recombinant human His-tagged full length IRAK4 expressed in baculovirus expression system using Ser/Thr 07 as substrate at 0.1 uM incubated for 60 mins by Z'-Lyte assay relative to control
T2 sequence (whole entry): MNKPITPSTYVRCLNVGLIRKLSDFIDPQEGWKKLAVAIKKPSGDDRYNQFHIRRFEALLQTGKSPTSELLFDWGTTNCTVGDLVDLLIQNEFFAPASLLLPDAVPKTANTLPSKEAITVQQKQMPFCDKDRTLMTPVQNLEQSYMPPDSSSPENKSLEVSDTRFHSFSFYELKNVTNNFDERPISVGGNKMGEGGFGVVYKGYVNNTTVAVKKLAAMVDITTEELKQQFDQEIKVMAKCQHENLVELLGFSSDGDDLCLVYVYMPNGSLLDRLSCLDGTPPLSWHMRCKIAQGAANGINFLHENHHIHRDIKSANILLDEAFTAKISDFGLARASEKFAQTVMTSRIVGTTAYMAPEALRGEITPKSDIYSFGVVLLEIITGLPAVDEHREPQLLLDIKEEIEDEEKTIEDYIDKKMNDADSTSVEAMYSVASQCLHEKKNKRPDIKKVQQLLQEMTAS

[16] = biological target: Fibroblast growth factor receptor 4 (Homo sapiens) (UniProt P22455); assay: Inhibition of recombinant human His-tagged FGFR4 ([…]) expressed in baculovirus expression system using Tyr 04 as substrate at 0.1 uM incubated for 60 mins by Z'-Lyte assay relative to control
Chain of Fibroblast growth factor receptor 4 (Homo sapiens) (P22455 22-802 limits assumed): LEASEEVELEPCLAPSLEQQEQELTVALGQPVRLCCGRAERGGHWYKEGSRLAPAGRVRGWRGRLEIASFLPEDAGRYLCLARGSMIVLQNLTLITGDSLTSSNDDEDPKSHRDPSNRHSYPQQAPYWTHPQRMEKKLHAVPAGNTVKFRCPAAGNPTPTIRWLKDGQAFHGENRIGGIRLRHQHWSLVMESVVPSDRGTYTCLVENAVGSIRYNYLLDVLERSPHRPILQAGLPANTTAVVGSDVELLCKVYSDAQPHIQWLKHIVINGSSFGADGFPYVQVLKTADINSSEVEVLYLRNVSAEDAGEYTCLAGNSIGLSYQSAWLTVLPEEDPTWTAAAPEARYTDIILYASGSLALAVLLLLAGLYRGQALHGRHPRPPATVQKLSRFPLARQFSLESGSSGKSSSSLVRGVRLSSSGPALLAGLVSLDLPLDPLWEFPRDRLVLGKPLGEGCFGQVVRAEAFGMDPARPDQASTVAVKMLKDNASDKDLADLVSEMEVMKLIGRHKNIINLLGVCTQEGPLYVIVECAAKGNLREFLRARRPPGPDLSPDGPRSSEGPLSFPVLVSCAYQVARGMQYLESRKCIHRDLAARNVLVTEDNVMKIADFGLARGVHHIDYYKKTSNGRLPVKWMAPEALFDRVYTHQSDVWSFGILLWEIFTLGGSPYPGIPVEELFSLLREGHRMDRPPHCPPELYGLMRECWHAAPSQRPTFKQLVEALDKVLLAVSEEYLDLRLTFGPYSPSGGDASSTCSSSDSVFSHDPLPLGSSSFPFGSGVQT

in vitro = details: dog, MDCK
Description: Apparent permeability across apical to basolateral side in MDCK cells at 10 uM incubated upto 180 mins by LC/MS-MS analysis

Chain of Tyrosine-protein kinase JAK1 (P23458 whole entry, the tested form may be a part): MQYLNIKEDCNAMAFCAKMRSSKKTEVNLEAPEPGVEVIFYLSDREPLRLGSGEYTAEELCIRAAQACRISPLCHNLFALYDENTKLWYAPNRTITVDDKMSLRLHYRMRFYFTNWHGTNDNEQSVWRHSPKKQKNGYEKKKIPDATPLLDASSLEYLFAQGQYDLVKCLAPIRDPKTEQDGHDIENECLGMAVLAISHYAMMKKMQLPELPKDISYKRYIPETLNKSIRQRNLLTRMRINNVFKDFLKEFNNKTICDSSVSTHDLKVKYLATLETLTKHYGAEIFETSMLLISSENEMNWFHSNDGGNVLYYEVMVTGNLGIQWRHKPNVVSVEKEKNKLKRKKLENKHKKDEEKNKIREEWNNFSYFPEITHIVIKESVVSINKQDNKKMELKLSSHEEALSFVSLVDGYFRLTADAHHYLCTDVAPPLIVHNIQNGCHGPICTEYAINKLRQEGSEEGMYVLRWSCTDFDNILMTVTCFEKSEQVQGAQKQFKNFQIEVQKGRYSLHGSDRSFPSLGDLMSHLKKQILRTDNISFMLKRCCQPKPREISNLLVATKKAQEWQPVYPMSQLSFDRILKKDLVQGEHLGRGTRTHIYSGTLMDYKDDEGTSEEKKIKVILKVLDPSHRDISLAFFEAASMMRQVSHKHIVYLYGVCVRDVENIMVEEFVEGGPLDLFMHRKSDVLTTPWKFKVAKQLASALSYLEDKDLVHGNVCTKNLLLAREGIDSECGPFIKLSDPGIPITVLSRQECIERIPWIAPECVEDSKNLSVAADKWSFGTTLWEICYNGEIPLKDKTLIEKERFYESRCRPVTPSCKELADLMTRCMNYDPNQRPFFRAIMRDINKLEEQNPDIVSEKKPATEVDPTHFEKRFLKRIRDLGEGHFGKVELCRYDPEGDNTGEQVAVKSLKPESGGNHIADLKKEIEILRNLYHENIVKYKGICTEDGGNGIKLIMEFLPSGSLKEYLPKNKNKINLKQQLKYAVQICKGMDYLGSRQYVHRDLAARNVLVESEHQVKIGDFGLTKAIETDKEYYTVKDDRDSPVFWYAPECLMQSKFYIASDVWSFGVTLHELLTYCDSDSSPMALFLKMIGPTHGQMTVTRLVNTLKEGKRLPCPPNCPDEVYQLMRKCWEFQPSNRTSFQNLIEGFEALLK

Structure (SMILES) | IC50 [1] [nM] | inhibition at 1 h, 0.1 µM (LRRK2) [%] | inhibition [2] [%] | inhibition [3] [%] | inhibition [4] [%] | inhibition [5] [%] | inhibition [6] [%] | inhibition [7] [%] | inhibition [8] [%] | inhibition [9] [%] | inhibition [10] [%] | inhibition [11] [%] | inhibition [12] [%] | inhibition [13] [%] | inhibition [14] [%] | inhibition [15] [%] | inhibition [16] [%] | Papp A→B at 3 h, 10 µM (in vitro) [×10⁻⁶ cm/s]
O=C(Nc1c[nH]nc1-c1cc2ccccc2cc1OC(F)F)c1cnn2cccnc12 | 2.2 | 31 | 29 | 35 | 33 | 22 | 1 | 6 | -3 | -8 | 0 | 5 | 4 | -6 | 6 | 4 | 4 | 13
O=C(Nc1c[nH]nc1-c1cc(Cl)ccc1OC(F)F)c1cnn2cccnc12 | 1.2 | 87 | 38 | 38 | 32 | 19 | 12 | 10 | 6 | 6 | 5 | 5 | 4 | 1 | 0 | 0 | -1 | 14
Cn1cc(NC(=O)c2cnn3cccnc23)c(-c2cc(Cl)ccc2OC(F)F)n1 | 1.7 | 61 | 62 | 28 | 30 | 11 | 11 | 0 | 29 | 4 | 4 | -4 | 6 | -1 | 10 | -4 | 5 | 14

Source: ChEMBL document CHEMBL4665643 (Bioorg Med Chem Lett, 2019)
